The target in one assay is Beta-lactamase OXA-1 (Escherichia coli, UniProt P13661). Put plainly: Kinetic Assay. The following applies: pH 7.2. As for the experimental part:
(§1) Steady-state kinetics were performed on an Agilent 8453 diode array spectrophotometer (Palo Alto, CA) in 50 mM sodium phosphate buffer (pH 7.2) supplemented with 20 mM NaHCO3.

The target of the next assay is Oxa40 (Acinetobacter baumannii, UniProt Q8RLA6). Description: Kinetic Assay. The following applies: pH 7.2. On the procedure: as §1
Chain of Oxa40 (Q8RLA6 whole entry): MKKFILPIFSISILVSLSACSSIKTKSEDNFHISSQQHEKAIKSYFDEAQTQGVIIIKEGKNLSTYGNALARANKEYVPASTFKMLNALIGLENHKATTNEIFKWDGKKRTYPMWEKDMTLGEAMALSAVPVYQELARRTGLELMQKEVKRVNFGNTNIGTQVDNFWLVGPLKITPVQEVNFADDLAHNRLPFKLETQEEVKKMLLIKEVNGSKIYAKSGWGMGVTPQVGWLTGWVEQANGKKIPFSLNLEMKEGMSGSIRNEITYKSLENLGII

The results in this text go back to BindingDB's records for doi:10.1074/jbc.M113.533562 (Case Western Reserve University, 2014).

Chain of Beta-lactamase OXA-1 (P13661 whole entry): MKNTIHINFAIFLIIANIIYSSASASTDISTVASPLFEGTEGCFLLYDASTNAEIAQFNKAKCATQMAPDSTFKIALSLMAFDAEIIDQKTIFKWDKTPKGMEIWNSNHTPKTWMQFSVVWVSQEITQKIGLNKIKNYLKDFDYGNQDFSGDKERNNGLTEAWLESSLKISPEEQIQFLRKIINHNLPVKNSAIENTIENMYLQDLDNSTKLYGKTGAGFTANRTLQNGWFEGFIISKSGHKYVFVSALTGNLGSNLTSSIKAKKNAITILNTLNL

A word on the IC50: it is the midpoint of a concentration-inhibition curve. A higher IC50 goes with weaker potency. What is called Ki is a dissociation constant, usually derived from enzyme kinetics or from competition with a known ligand. On Beta-lactamase OXA-1, `O=C(O)C1=CS[C@@H]2/C(=C\c3cc4n(n3)CSC4)C(=O)N12` [Penem 1] displayed an IC50 of 30 nM and a Ki of 50 nM. In addition, on Oxa40, the 50% inhibitory concentration (IC50) amounted to 150 nM and the Ki was 30 nM.

As to `O=C(O)C1=CS[C@@H]2/C(=C\c3cn4c(n3)COCC4)C(=O)N12` [Penem 3], the IC50 is 60 nM against Beta-lactamase OXA-1 and 160 nM at Oxa40. Besides, the Ki at Beta-lactamase OXA-1 is 380 nM; on Oxa40, 150 nM.
